Where no end group is shown, it is not given here.

The subject of one test is BRI1 (BRI1-ECD). As to the kind of experiment: Yeast two-hybrid with BRI1-ECD. It is filed as binding, Arabidopsis thaliana. The note with it: yeast AH109, medium lacking Leu, Trp, His. From the text:
Fig 6 AtRALF1 interacts physically with BAK1 protein. (A) The active AtRALF1 peptide interacts with the extracellular domain (ECD) of BAK1 (BAK1-ECD) in yeast. The AtRALF1 protein fused to the GAL4 DNA-binding domain (AtRALF1-pGBKT7) was used as bait to test its interaction with the extracellular domain of the proteins fused to the GAL4 activation domain (pGADT7): BAK1 (BAK1-ECD), BAK7 (BAK7-ECD), BRI1 (BRI1-ECD) and FLS2 (FLS2-ECD). (B) Blueprint showing the truncated proteins from the extracellular domain of BAK1 tested in the two-hybrid assay. The extracellular domain of BAK1 comprises leucine zippers (LZ), 5 leucine rich-regions (LRRs) and a proline-rich region (pro-rich). (C) AtRALF1-pGBKT7 was used as bait to test its interaction with truncated proteins fused to the GAL4 activation domain (pGADT7). […] HA-BAK1-ECD was detected with an anti-HA antibody. AtRALF1 was detected with an anti-RALF antibody. […] BAK1-GFP was detected with an anti-GFP antibody. […]
The coding regions of the mature peptides AtRALF1 and AtRALF34 were amplified from Arabidopsis genomic DNA and fused to the GAL4 DNA-binding domain and the MYC epitope tag using the NdeI/BamHI sites in the pGBKT7 (Clontech) vector. […] The proteins fused to the HA and MYC epitope tags were detected by protein blotting. […]

Test [1] relates to cytosolic Ca^2+ in Arabidopsis seedlings. Put plainly: Ca^2+ mobilization assay (apoaequorin luminescence). It is filed as in vivo, Arabidopsis thaliana. How it is done: The cytoplasmic Ca^2+ assay was performed in Arabidopsis seedlings as described previously. Changes in Ca^2+ levels were measured using an Arabidopsis line homozygous for the single insertion of a transgene encoding a cytoplasmically expressed apoaequorin protein driven by the constitutive promoter 35S [53], here denoted Wt-aeq. Wt-aeq plants were crossed with bak1-3 mutants, and T3 generation plants overexpressing apoaequorin and containing a T-DNA insertion in the BAK1 gene, named bak1-3-aeq, were selected and evaluated using semi-quantitative RT-PCR with specific primers (S1 Table). Arabidopsis seedlings were grown in plates for 4 days. A single seedling was transferred into each well of a 96-well white microplate (Thermo Labsystems) containing 200 μl of medium supplemented with […] coelenterazine cp (Biotium) and incubated in the dark at 24 °C for 16 h. Each well containing a single seedling received recombinant AtRALF1 or acridinium-labeled AtRALF1 at a final concentration of 5, 10 or 100 nM as indicated. The resulting luminescence emission was monitored using a microplate reader (Biotec ELx 800) and 20 time-points for approximately 160 s. The experiments were repeated at least three times using independent biological replicates. The data shown are from one representative experiment.

Test [2] concerns Arabidopsis endodermic root cells. As to the kind of experiment: Root cell length, endodermis of differentiation zone. It is filed as in vivo, Arabidopsis thaliana. The conditions noted are these: 10 μM, 2 days. How it is done:
(A) and (B) Arabidopsis seedlings (2 days old) were treated with 10 μM AtRALF1 or water (H20) for 2 days. The values are the mean ± SD of at least 25 seedlings. Triple asterisks indicate P < 0.01 (Student’s t test); ns, not significant. (C) Four-day-old seedlings were transferred to media containing different concentrations of AtRALF1, and the primary root length was measured after 8 days of treatment. The data represent the mean value ± SD of 30 seedlings. […] Representative Arabidopsis seedlings after 8 days of treatment with AtRALF1 are shown below. Seedlings were arranged on plates after the treatment for imaging. Scale bars, 1 cm. (D) Two-day-old seedlings were treated with 10 μM AtRALF1 or water for 2 days, and root cell length was measured after 2 days of treatment. Cells from the root endodermis in the differentiation zone were measured. The values are the mean ± SD of approximately 150 cells. […]
Aliquots of 1 ml of medium containing seeds were distributed into 24-well plates. The peptides (10 μM) were added after 2 days, and the root length was measured 2 days after treatment. […] The root length was measured 8 days after treatment unless stated otherwise. […] Quantitative data were obtained as previously described. […] For cell length measurements, AtRALF1 peptide (10 μM) was added after 2 days of germination, and the cell length was measured after 2 days of treatment. […]

Regarding “AtRALF1: root-specific RALF isoform in Arabidopsis; recombinant peptide hormone produced in E. coli (ATTKYISYQSLKRNSVPCSRRGASYYNCQNGAQANPYSRGCSKIARCRS; ends and bridges not checked; cysteine pairing not given here)”, the “interaction with BRI1-ECD (Y2H complementation)” value with BRI1 (BRI1-ECD) is on record as “able to complement only the BAK1-ECD construct”. Also, the “increase in cytoplasmic Ca^2+” value in test [1] (acriAtRALF1 vs unlabeled AtRALF1, apoaequorin seedlings (S17A Fig)) was “induced an increase in cytoplasmic Ca^2+”. Also, in test [1] (bak1-3-aeq plants, 10 and 100 nM), the cytosolic calcium increase result is “cytosolic calcium increase similar to plants expressing the apoaequorin gene in a wild-type background”. The “root cell length vs water-treated control” value in test [2] (bak1-1, bak1-3, bak1-4) is “showed no difference between AtRALF1-treated plants and the water-treated control”. The “reduction of root cell length vs water-treated control” value in test [2] (wild-type, ~150 cells) came out at 58%.

(Values after article PMC5656322, “BAK1 is involved in AtRALF1-induced inhibition of root cell expansion” (PLoS Genetics, 2017).)
